The values that follow are results of earlier work, collected in patent US10098891B2, “Highly concentrated stable meloxicam solutions for needleless injection” (BOEHRINGER INGELHEIM VETMEDICA GMBH, priority 2001, dated 2018).

For the series the following is noted: aqueous solution.

For `Cc1cnc(NC(=O)C2=C(O)c3ccccc3S(=O)(=O)N2C)s1` [meloxicam, 4-hydroxy-2-methyl-N-(5-methyl-2-thiazolyl)-2H-1,2-benzothiazine-3-carboxamide-1,1-dioxide], the solubility in water entry was “does not dissolve readily in water”.
